Patent publication US20090298866A1, “Indole Compounds” (priority 2006, published 2009)
Counter-ions that a name gives are not always drawn.

Assays:
human EP1 receptor [1] = biological target: T1, human EP1 receptor (Homo sapiens, UniProt P34995); test: Binding assay for the human prostanoid EP1 receptor (competition with [3H]-PGE2); settings: binding to human EP1 receptor, CHO-K1 membranes, [3H]-PGE2 3 nM; averages of a number of experiments
T1 construct: expressed in transfected cells; host or cells: CHO-K1
T1 sequence (P34995 1-402): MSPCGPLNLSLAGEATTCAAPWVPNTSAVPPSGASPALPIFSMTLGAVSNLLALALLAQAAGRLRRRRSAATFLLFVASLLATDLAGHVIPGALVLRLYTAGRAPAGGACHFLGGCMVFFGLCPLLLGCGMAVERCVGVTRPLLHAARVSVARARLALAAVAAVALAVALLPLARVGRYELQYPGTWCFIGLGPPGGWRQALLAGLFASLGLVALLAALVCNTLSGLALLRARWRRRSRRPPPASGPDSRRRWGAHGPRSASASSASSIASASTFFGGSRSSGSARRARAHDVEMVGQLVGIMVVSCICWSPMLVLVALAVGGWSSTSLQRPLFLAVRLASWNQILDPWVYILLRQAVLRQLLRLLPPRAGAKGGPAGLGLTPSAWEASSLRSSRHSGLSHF
Description: Competition assay using [^3H]-PGE2.
Compound potencies are determined using a radioligand binding assay. In this assay compound potencies are determined from their ability to compete with tritiated prostaglandin E2 ([^3H]-PGE2) for binding to the human EP1 receptor. This assay utilises Chinese hamster ovary-K1 (CHO-K1) cells into which a stable vector containing the EP1 cDNA has previously been transfected. Cells are cultured in suitable flasks containing culture medium such as DMEM:F-12 supplemented with 10% v/v foetal calf serum, 2 mM L-glutamine, 0.25 mg/ml geneticin, 10 μg/ml puromycin and 10 μM indomethacin.
Cells are detached from the culture flasks by incubation in calcium and magnesium free phosphate buffered saline containing 1 mM disodium ethylenediaminetetraacetic acid (Na2EDTA) and 10 μM indomethacin for 5 min. The cells are isolated by centrifugation at 250×g for 5 mins and suspended in an ice cold buffer such as 50 mM Tris, 1 mM Na2EDTA, 140 mM NaCl, 10 μM indomethacin (pH 7.4). The cells are homogenised using a Polytron tissue disrupter (2×10 s burst at full setting), centrifuged at 48,000×g for 20 mins and the pellet containing the membrane fraction is washed (optional) three times by suspension and centrifugation at 48,000×g for 20 mins. The final membrane pellet is suspended in an assay buffer such as 10 mM 2-[N-morpholino]ethanesulphonic acid, 1 mM Na2EDTA, 10 mM MgCl2 (pH 6). Aliquots are frozen at −80° C. until required.
For the binding assay the cell membranes, competing compounds and [^3H]-PGE2 (3 nM final assay concentration) are incubated in a final volume of 100 μl for 30 min at 30° C. All reagents are prepared in assay buffer. Reactions are terminated by rapid vacuum filtration over GF/B filters using a Brandell cell harvester. The filters are washed with ice cold assay buffer, dried and the radioactivity retained on the filters is measured by liquid scintillation counting in Packard TopCount scintillation counter.
The data are analysed using non linear curve fitting techniques to determine the concentration of compound producing 50% inhibition of specific binding (IC50).

human EP1 receptor [2] = biological target: T1, human EP1 receptor; test: human EP1 calcium mobilisation assay; format: cell-based; settings: human EP1, CHO-K1 cells, PGE2-induced calcium mobilisation; averages of a number of experiments; read-out: functional pKi (converted)
Description: Briefly, the antagonist properties of compounds are assessed by their ability to inhibit the mobilisation of intracellular calcium ([Ca^2+]i) in response to activation of EP1 or EP3 receptors by the natural agonist hormone prostaglandin E2 (PGE2). Increasing concentrations of antagonist reduce the amount of calcium that a given concentration of PGE2 can mobilise. The net effect is to displace the PGE2 concentration-effect curve to higher concentrations of PGE2. The amount of calcium produced is assessed using a calcium-sensitive fluorescent dye such as Fluo-4, AM and a suitable instrument such as a Fluorimetric Imaging Plate Reader (FLIPR). Increasing amounts of [Ca^2+]i produced by receptor activation increase the amount of fluorescence produced by the dye and give rise to an increasing signal. The signal may be detected using the FLIPR instrument and the data generated may be analysed with suitable curve-fitting software.
The human EP1 or EP3 calcium mobilisation assay (hereafter referred to as ‘the calcium assay’) utilises Chinese hamster ovary-K1 (CHO-K1) cells into which a stable (pCIN; BioTechniques 20 (1996): 102-110) vector containing either EP1 or EP3 cDNA has previously been transfected. Cells are cultured in suitable flasks containing culture medium such as DMEM:F-12 supplemented with 10% v/v foetal calf serum, 2 mM L-glutamine, 0.25 mg/ml geneticin, 100 μM flurbiprofen and 10 μg/ml puromycin.
For assay, cells are harvested using a proprietary reagent that dislodges cells such as Versene. Cells are re-suspended in a suitable quantity of fresh culture media for introduction into a 384-well plate. Following incubation for 24 hours at 37° C. the culture media is replaced with a medium containing Fluo-4 and the detergent pluronic acid, and a further incubation takes place. Concentrations of compounds are then added to the plate in order to construct concentration-effect curves. This may be performed on the FLIPR in order to assess the agonist properties of the compounds. Concentrations of PGE2 are then added to the plate in order to assess the antagonist properties of the compounds.
The data so generated may be analysed by means of a computerised curve-fitting routine. The concentration of compound that elicits a half-maximal inhibition of the calcium mobilisation induced by PGE2 (pIC50) may then be estimated.

Row | SMILES | IC50 (human EP1 receptor [1]) | Ki (human EP1 receptor [2])
1 | CC(C)Cc1cn(-c2nc(NC(=O)C(C)(C)C)cs2)c2cc(Cl)ccc12 [Example 4, N-{2-[6-Chloro-3-isobutyl-1H-indoi-1-yl]-1,3-thiazol-4-yl}-2,2-dimethylpropanamide] | ≤ 0.1 µM | 
2 | CC(C)Cc1cn(-c2nc(C(=O)Nc3cccc(CO)c3)cs2)c2cc(Cl)ccc12 [Example 24, 2-[6-Chloro-3-isobutyl-1H-indol-1-yl]-N-[3-indol-1-yl]N-[3-(hydroxymethyl)phenyl]-1,3-thiazole-4-carboxamide] |  | ≤ 0.1 µM
3 | CC(C)Cc1cn(-c2nc(C(=O)N3CCCC3)cs2)c2cc(Cl)ccc12 [Example 11, 6-Chloro-3-isobutyl-1-[4-(1-pyrrolidinylcarbonyl)-1,3-thiazol-2-yl]-1H-indole] |  | ≤ 0.1 µM
4 | CC(C)Cc1cn(-c2nc(C(=O)NCCCO)cs2)c2cc(Cl)ccc12 [Example 26, 2-[6-Chloro-3-isobutyl-1H-indol-1-yl]-N-(3-hydroxypropyl)-1,3-thiazole-4-carboxamide] |  | ≤ 0.1 µM
5 | CC(C)Cc1cn(-c2nc(C(=O)Nc3ccc(CO)cc3)cs2)c2cc(Cl)ccc12 [Example 21, 2-[6-Chloro-3-isobutyl-1H-indol-1-yl]-N-[4-(hydroxymethyl)phenyl]-1,3-thiazole-4-carboxamide] | ≤ 0.1 µM | 
6 | CC(C)Cc1cn(-c2nc(NC(=O)C3CCCC3)cs2)c2cc(Cl)ccc12 [Example 3, N-{2-[6-Chloro-3-isobutyl-1H-indol-1-yl]-1,3-thiazol-4-yl}cyclopentanecarboxamide] | ≤ 0.1 µM | 
7 | CC(C)Cc1cn(-c2nc(C(=O)Nc3ccccn3)cs2)c2cc(Cl)ccc12 [Example 27, 2-[6-Chloro-3-isobutyl-1H-indol-1-yl]-N-2-pyridinyl-1,3-thiazole-4-carboxamide] |  | ≤ 0.1 µM
8 | CC(C)c1cn(-c2nc(C(=O)Nc3ccccc3N)cs2)c2cc(Cl)ccc12 [Example 13, N-(2-Aminophenyl)-2-[6-chloro-3-isopropyl-1H-indol-1-yl]-1,3-thiazole-4-carboxamide] | ≤ 0.1 µM | 

Further lines, results first:

Row | IC50 (human EP1 receptor [1]) | Ki (human EP1 receptor [2]) | SMILES
9 | ≤ 0.1 µM |  | CC(C)Cc1nn(-c2nc(-c3nc4ccccc4[nH]3)cs2)c2cc(Cl)ccc12 [Example 39, 1-[4-(1H-Benzimidazol-2-yl)-1,3-thiazol-2-yl]-6-chloro-3-isobutyl-1H-indazole hydrochloride]
10 |  | ≤ 0.1 µM | CC(C)Cc1cn(-c2nc(-c3nc(-c4ccccc4)c[nH]3)cs2)c2cc(Cl)ccc12 [Example 52, 6-Chloro-3-isobutyl-1-[4-(4-phenyl-1H-imidazol-2-yl)-1,3-thiazol-2-yl]-1H-indole]
11 |  | ≤ 0.1 µM | CC(C)Cc1cn(Cc2nc(C(N)=O)cs2)c2cc(Cl)ccc12 [Example 34, 2-{[6-Chloro-3-isobutyl-1H-indol-1-yl]methyl}-1,3-thiazole-4-carboxamide]
12 | ≤ 0.1 µM |  | CC(C)Cc1cn(-c2nc(-c3nc4ncccc4[nH]3)cs2)c2cc(Cl)ccc12 [Example 42, 2-{2-[6-Chloro-3-isobutyl-1H-indol-1-yl]-1,3-thiazol-4-yl}-1H-imidazo[4,5-b]pyridine hydrochloride]
13 | ≤ 0.1 µM |  | CC(C)(C)CCc1cn(-c2nc(-c3nc4ccccc4[nH]3)cs2)c2cc(Cl)ccc12 [Example 37, 2-{2-[6-Chloro-3-(3,3-dimethylbutyl)-1H-indol-1-yl]-1,3-thiazol-4-yl}-1H-benzimidazole hydrochloride]
14 |  | ≤ 0.1 µM | CC(C)Cc1cn(-c2nc(C(N)=O)cs2)c2cc(Cl)ccc12 [Example 30, 2-[6-Chloro-3-isobutyl-1H-indol-1-yl]-1,3-thiazole-4-carboxamide]
15 |  | ≤ 0.1 µM | CC(C)Cc1cn(-c2nc(C(=O)Nc3ccc(F)cc3)cs2)c2cc(Cl)ccc12 [Example 29, 2-[6-Chloro-3-isobutyl-1H-indol-1-yl]-N-(4-fluorophenyl)-1,3-thiazole-4-carboxamide]
16 | ≤ 0.1 µM |  | CC(C)Cc1cn(-c2nc(-c3ncc[nH]3)cs2)c2cc(Cl)ccc12 [Example 47, 6-Chloro-1-[4-(1H-imidazol-2-yl)-1,3-thiazol-2-yl]-3-isobutyl-1H-indole]
